According to the NIST ThermoML archive (doi:10.1021/acs.jced.9b00536):

Assay: refractive index (Na D-line) (dimensionless); wn = mass fraction of the nth substance listed
Conditions: 100 kPa, Liquid, Standard Abbe refractometry

[Na+].[OH-] [sodium hydroxide] + O
refractive index
Conditions	283.15 K	288.15 K	293.15 K	298.15 K	303.15 K	308.15 K
w1 = 0.2	1.3856	1.3847	1.3838	1.3829	1.382	1.3811
w1 = 0.21	1.3875	1.3866	1.3858	1.3849	1.384	1.3832
w1 = 0.22	1.3904	1.3895	1.3886	1.3878	1.3869	1.386
w1 = 0.23	1.3922	1.3912	1.3903	1.3893	1.3882	1.3874
w1 = 0.24	1.3941	1.3932	1.3923	1.3914	1.3905	1.3896
w1 = 0.25	1.3969	1.3961	1.3952	1.3943	1.3934	1.3925
w1 = 0.26	1.3991	1.3982	1.3974	1.3965	1.3956	1.3947
w1 = 0.27	1.4009	1.4	1.3991	1.3982	1.3973	1.3964
w1 = 0.28	1.4028	1.4019	1.4011	1.4002	1.3993	1.3983
w1 = 0.29	1.4053	1.4044	1.4035	1.4026	1.4017	1.4008
w1 = 0.3	1.4066	1.4056	1.4048	1.4038	1.4029	1.402
w1 = 0.31	1.4087	1.4077	1.4068	1.4059	1.405	1.4041
w1 = 0.32	1.4099	1.4091	1.4081	1.4073	1.4063	1.4055
w1 = 0.33	1.4115	1.4107	1.4097	1.4088	1.4079	1.407
w1 = 0.34	1.4141	1.4132	1.4123	1.4114	1.4105	1.4096
w1 = 0.35	1.416	1.4151	1.4142	1.4133	1.4123	–
w1 = 0.36	1.4175	1.4167	1.4158	1.4148	1.4139	–
w1 = 0.37	1.419	1.4181	1.4172	1.4163	1.4154	–
w1 = 0.38	1.4209	1.42	1.4191	1.4182	1.4173	–
w1 = 0.39	1.4226	1.4217	1.4208	1.4199	1.4189	–
w1 = 0.4	1.4241	1.4232	1.4223	1.4214	1.4205	–
w1 = 0.41	1.4252	1.4243	1.4234	1.4225	1.4215	–
w1 = 0.42	1.4269	1.426	1.425	1.4241	1.4231	–
w1 = 0.43	1.4281	1.4272	1.4263	1.4254	1.4245	–
w1 = 0.44	1.4293	1.4284	1.4274	1.4265	1.4255	–
w1 = 0.45	1.4303	1.4295	1.4286	1.4276	1.4267	–
w1 = 0.46	1.4321	1.4312	1.4303	1.4293	1.4284	–
w1 = 0.47	1.4332	1.4323	1.4314	1.4304	1.4294	–
w1 = 0.48	1.4347	1.4338	1.4329	1.432	1.4311	–
w1 = 0.49	1.4356	1.4347	1.4338	1.4328	1.4318	–
w1 = 0.5	1.4365	1.4355	1.4346	1.4337	1.4328	–
